Data: patent US11472857B2 (Purdue Research Foundation, priority 2015, dated 2022)
“Also recorded” adds a separate entry of the source.

Tested on: male Wistar rats
Assay: In vivo blood glucose elevation after s.c. injection
Set-up: species or system rat
Description: Rats were catheterized to enable collection of blood samples at various time points. The total blood glucose level was measured by withdrawing blood at regular intervals (5-120 min) and tested using [sequence] LITE (glucose test meters, Abbott, Chicago, Ill.).

Q: With phospho-Tyr13-glucagon as the substance, how does the “Blood glucose elevation compared with native glucagon” value (7.1 nmol/kg s.c.) read?
A: response similar to that of phospho-Thr5-glucagon and phospho-Ser16-glucagon; also recorded: comparable to native glucagon

Q: What does the source list for phospho-Ser16-glucagon?
A: Maximum elevation in blood glucose (2.8 nmol/kg s.c.): ~10 mg/dL; Blood glucose elevation compared with native glucagon (7.1 nmol/kg s.c.): activity comparable to that of native glucagon; Maximum increase in blood glucose (7.1 nmol/kg s.c.): ~50 mg/dL; Time of peak blood glucose (7.1 nmol/kg s.c.): 20 min

Q: With phospho-Thr7-glucagon as the substance, how does the “Blood glucose elevation compared with native glucagon” value (7.1 nmol/kg s.c.) read?
A: slower response and a somewhat lower blood glucose peak; also recorded: somewhat slower increase
